These results are taken from patent publication US10543178B2, “Dosage forms and related therapies” (PhilERA New Zealand Limited, priority 2002, dated 2020).

A short description of test [1]: Induction of diabetes by streptozotocin. The note with it: three days following STZ injection, 55 mg·kg^−1 i.v., mean ± SEM. The format is in vivo, rat. An excerpt: In order to induce diabetes, male Wistar rats (n=28, 303±2.9 g) were divided randomly into diabetic and nondiabetic groups. […] Nondiabetic animals received an equivalent volume of saline. […] Blood glucose and body weight were measure at day 3 following STZ/saline injection and then weekly throughout the study. Diabetes was identified by polydipsia, polyuria and hyperglycemia (>11 mmol·l^−1, Advantage II, Roche Diagnostics, NZ Ltd).

The conditions of test [2]: reported, Kodama et al. 1997; cited from earlier work.

As to `CN(N=O)C(=O)N[C@H]1C(O)O[C@H](CO)[C@@H](O)[C@@H]1O` (mixture of isomers) [STZ, streptozotocin], the Blood glucose in test [1] was determined as 25 ± 2 mmol/L. Regarding `CC(=O)NCCNCCNCCN.Cl` [N-acetyl-trientine hydrochloride], the “Chelating activity compared with trientine dihydrochloride” value in test [2] is recorded as “significantly lower”.
